Laboratory results reported in patent US20260132172A1, “IN VITRO BIOSYNTHESIS OF DIVERSE PYRIDINE-BASED MACROCYCLIC PEPTIDES” (The Brd. of Trustees of the Univ. of Illinois, priority 2022, published 2026).
Where a SMILES comes first, the peptide text is derived from it.

Columns and labels:
MroB/C = MroB/C dehydration (Dha formation) of MroA precursor peptide variants, MALDI-TOF-MS / LC-MS/MS; format: biochemical, Micromonospora rosaria; conditions: for Dha formation: MroA2 multi-site variants, in vitro translated, MALDI-TOF-MS; for dehydration by MroBC (site and extent): MroBC assays followed by LC-MS/MS analysis, result in words
Procedure: In a 0.65 mL protein low-binding Eppendorf tube placed on ice. 0.75 μL of purified mroA variant template DNA was mixed with 0.75 μL of Solution B and 1 μL of Solution A of PURExpress In vitro Protein Synthesis Kit (E6800L) purchased from NEB (total volume of reaction is 2.5 μL). The translation reactions were performed at 37° C. for 1 h on an aluminum block.
For a full MroBCD substrate scope investigation, a total translation volume for each variant of 7.5 μL was performed. 1.5 μL of 90 mM iodoacetamide (IAA) was added to quench dithiothreitol (DTT) in the translation reaction mixture, a thiol-based nucleophile that can react with electrophilic dehydroalanines generated from MroBC-catalyzed dehydration assays. The translation product was split into two parts with these corresponding volumes: 3 μL and 6 μL. In the 6 μL part. 10.2 μL of the enzyme mix containing enzymes and cofactors was added along with 1.8 μL 90 mM ATP (pH 7.5), which was used to initiate the reaction. The enzyme mix was made by adding these components in the following order: HEPES pH 7.5, MgCl2, glutamate, T. bispora tRNA^Glu (CUC), thermostable inorganic pyrophosphatase (TIPP), TEV (L56V/S135G/S219V) (w/w ratio with a total amount of MBP-tagged protein=1:10), MBP-MroB, MBP-MroC, and T. bispora GluRS. The enzyme mix was incubated 25 min at room temperature before adding to the translation product to facilitate in situ TEV-catalyzed cleavage of MBP from MBP-MroB and MBP-MroC. The enzymatic reaction proceeded for 1 h at room temperature. Overall, the concentration of components in the 18 μL reaction mix is as follows: 50 mM HEPES pH 7.5, 5 mM MgCl2. L-glutamate 1 mM, 3 μM T. bispora tRNA^Glu, 1 μM T. bispora GluRS, 2 μM MBP-MroB, 2 μM MBP-MroC, […], 0.027 U/μL TIPP, and 5 mM IAA. In addition, the 3 μL part was incubated with the same buffer lacking enzymes and tRNA as a translation control.
The reactions were performed similarly as described above, with 10 μM substrate concentration and without IAA. The total volume of each reaction is 100 μL.
Enzymatic assays were desalted using solid-phase extraction prior to LC-ESI-MS/MS analysis. Specifically, except for the thiazol(in)es-containing pyritide (which utilize 8 mg Pierce C18 Spin Column), the samples were applied to Toptip C18 (10-200 μL, Glygen Corp) wetted with 50 μL of 80% acetonitrile (0.1% formic acid) and equilibrate with 150 μL of 0.1% formic acid following the manufacturer instructions. The C18 columns (tips) are then washed with 150 μL of 0.1% formic acid and eluted using 100 μL 80% acetonitrile (0.1% formic acid). The samples were then dried utilizing lyophilization and redissolved in 25% acetonitrile (80 μL for enzymatic assays of in vitro-translated substrates and 200 μL for enzymatic assays of purified substrates). Then 20 μL of each sample was injected into an Agilent AdvanceBio Peptide Plus column (2.1×150 mm, 2.7 μm) equipped with an Agilent 6545B Q-TOF interfaced with an Agilent 1290 Infinity II LC system. Mobile phase solvents were composed of H2O, 0.1% formic acid (Solvent A), and acetonitrile 0.1% formic acid (Solvent B). The column compartment was maintained at 35° C. during all experiments. The column was equilibrated with 5 column volumes of starting mobile phase (95% A and 5% B) between injections. The gradient of all LC runs was as follows: 0-2 min: 95% A 5% B, 2-3 min: 70% A 30% B, 3-18 min: 20% A 80% B, 18-20 min: 5% A 95% B. The samples were run to waste for the first 3 min before applying to the mass spectrometer. Mass range was set from 100 to 1700 m/z (except for 412MroA1 W7G: 100-3000 m/z). MS parameters were as follows: gas, 320° C. at 8 L/min: nebulizer, 35 psig: nozzle voltage, 1000 V: sheath gas, 350° C. at 11 L/min: capillary, 3500 V: fragmentor, 125 V: skimmer, 65 V: MS scan rate (10) spectra/s): MS-MS scan rate (5 spectra/s); and isolation width (MS/MS), 1.3 m z. […]

MroD [1] = experiment: MroD [4+2] macrocyclization of didehydrated MroA2 variants, MALDI-TOF-MS; format: biochemical, Micromonospora rosaria; set-up: key: +++ indicates enzyme activity roughly equal to wild-type MroA2; ++ indicates modestly reduced enzyme activity; + indicates severely reduced enzyme activity; − indicates no detectable enzyme activity (no macrocycles detected); conditions: MroA2 multi-site variants; qualitatively estimated from leader peptide vs remaining didehydrated intermediate
Procedure: After incubation, the enzyme reaction (18 μL) was split into two equal parts. One part was treated with MBP-MroD such that the final concentration of MBP-MroD is 3 μM, and the other part was added the same volume but with buffer lacking MBP-MroD (50 mM HEPES, 300 mM NaCl, 2.5% glycerol, 0.5 mM TCEP). The reaction further proceeded for 1.5 h at room temperature. All reaction mixture was then desalted with solid-phase extraction using Ziptip with 0.6 μL C18 resin (EMD Millipore) and crystallized on an MTP384 steel target plate using either saturated sinapic acid or 50 mg/mL Super DHB [dissolved in 60% acetonitrile and 0.1% trifluoroacetic acid (TFA)] as the matrix. The crystallized spots were then analyzed using MALDI-TOF-MS (Bruker Ultraflex). The external standard for MALDI-TOF-MS analysis is ProteoMass Peptide and Protein MALDI-MS Calibration Kit (Sigma).

[2] = target: MBP-MroB (Micromonospora rosaria MroB with maltose-binding protein fused to the N-terminus) (Micromonospora rosaria) [MBP: P0AEX9]; experiment: competition fluorescence polarization against fluorescein-Δ12MroA1
[3] = target: MBP-MroD (Micromonospora rosaria MroD with maltose-binding protein fused to the N-terminus) (Micromonospora rosaria) [MBP: P0AEX9]; experiment: as above
MroB = experiment: Competition fluorescence polarization with fluorescein-Δ12MroA1, MroB; format: binding, Micromonospora rosaria; conditions: for IC50: competition FP, 80 nM enzyme, 5 nM labeled Δ12MroA1
Procedure: (§1) The initial sample contained 80 nM enzyme, 5 nM labeled Δ12MroA1 peptide, and competitor peptide (concentration is from 20 μM to 100 μM, depending on the experiment). In a black 384-well plate (Corning 3575), 30 μL of initial sample was added to the first well, followed by 13 2-fold dilutions into subsequent wells containing 80 nM MBP-MroB and 5 nM labeled Δ12MroA1. The plate was covered from light and incubated at room temperature for 10 min, and then fluorescence polarization was measured (Biotek Synergy H4 hybrid reader) using the following filter (Ex: Em—485 nm/20 nm: 518 nm/20 nm). The obtained data was converted to anisotropy value and plotted against peptide concentration, and fitted to dose-response function:
(§2) Where: y=anisotropy value, A1=minimum anisotropy, A2=maximum anisotropy, p=Hill's coefficient, x=competitor concentration. The obtained IC50 was used to calculate inhibitor constant Krusing the following equation: 12
(§3) In cases where competitor concentration was not high enough to achieve a plateau, the competition curve was fitted with minimum anisotropy fixed to be the same value as the anisotropy value of the free probe solution. This calculation assumed that the labeled peptide was completely displaced from the enzyme binding pocket at a very high concentration of the competitor. […] The specific minimum anisotropy used in this experiment for both MroB and MroD was 65.

MroD [4] = experiment: Competition fluorescence polarization with fluorescein-Δ12MroA1, MroD; format: binding, Micromonospora rosaria; conditions: competition FP, 80 nM enzyme, 5 nM labeled Δ12MroA1
Procedure: as §1, §2, §3

Molecule	Dha formation (MroB/C) [Dha]	Relative MroD conversion (MroD [1])	further results
SGRANSWLI [Number 2]	2	−	
SGYHFHNRSWLI [Number 54-V8R]	2	−	
SGGYRPHSWLI [Number 38]	2	−	
Δ12MroA1-I9G (peptide)			IC50 [2]: 2000 nM; IC50 [3]: 910 nM
CC[C@H](C)[C@H](NC(=O)[C@H](CC(=O)O)NC(=O)[C@H](CC(C)C)NC(=O)[C@H](CC(=O)O)NC(=O)[C@@H](N)CO)C(=O)N[C@H](C(=O)N[C@@H](CC(=O)O)C(=O)N[C@@H](CC(C)C)C(=O)N[C@@H](CC(=O)O)C(=O)N[C@@H](CC(C)C)C(=O)N[C@@H](C)C(=O)N[C@H](C(=O)N[C@@H](CC(=O)O)C(=O)N[C@@H](CCC(=O)O)C(=O)N[C@@H](CCC(=O)O)C(=O)N[C@@H](CC(C)C)C(=O)N[C@@H](C)C(=O)N[C@@H](C)C(=O)N[C@@H](CC(C)C)C(=O)N[C@@H](CO)C(=O)N[C@H](C(=O)NCC(=O)NCC(=O)N[C@@H](CC(C)C)C(=O)NCC(=O)N[C@@H](CC(N)=O)C(=O)N[C@H](C(=O)N[C@@H](CCC(=O)O)C(=O)N[C@H](C(=O)NCC(=O)N[C@@H](C)C(=O)N[C@@H](CO)C(=O)NCC(=O)N[C@@H](Cc1c[nH]c2ccccc12)C(=O)N[C@@H](CC(C)C)C(=O)NCC(=O)N[C@@H](CO)C(=O)N[C@@H](Cc1c[nH]c2ccccc12)C(=O)N[C@H](C(=O)N[C@H](C(=O)OC)[C@@H](C)CC)C(C)C)C(C)C)[C@@H](C)O)C(C)C)C(C)C)C(C)C [Δ12MroA1-COOMe] (H-SDLDIVDLDLAVDEELAALSVGGLGNTEVGASGWLGSWVI-OMe)			IC50 (MroB): 4200 ± 1700 nM; loss in binding affinity to MroB (MroB; relative to Δ12MroA1): ~8 fold; IC50 (MroD [4]): 400 ± 60 nM
GlyAla-MroA1 core (peptide)			IC50 [2]: 27200 nM; IC50 [3]: 40900 nM
SGHYKPQRSWLI [Number 55-A8R]	2	−	
SGKALEFSWLI [Number 29]	2	−	
SGDAMRWRSWLI [Number 53-A8R]	2	−	
SGYHFHNVSWLI [Number 54]	2	−	
Δ12MroA1-COOMe (peptide)			IC50 [2]: 4200 nM; fold loss in binding affinity (against Δ12MroA1) [2]: 8 fold; IC50 [3]: 400 nM
Δ12MroA1 Leader (peptide)			IC50 [2]: 19400 nM; IC50 [3]: 16000 nM
SGLQHGKYSWLI [Number 52]	2	−	
SGRYAGWSWLI [Number 39]	2	−	
Δ12MroA1 (variant of MroA1 in which the first 12 residues were deleted) (peptide)			IC50 [2]: 680 nM; IC50 [3]: 900 nM
Ac-GASGWLGSWVI-OH [GlyAla-MroA1 core, Ac-GASGWLGSWVI]			dehydration by MroBC (site and extent) (MroB/C): only Ser6 is dehydrated; IC50 (MroB): 27200 ± 1900 nM; IC50 (MroD [4]): 40900 ± 5000 nM
SGYDRQYSWLI [Number 56]	2	−	
H-SDLDIVDLDLAVDEELAALSVGGLGNTEVGASGWLGSWGI-OH [Δ12MroA1-V8G]			IC50 (MroB): 1100 ± 200 nM; IC50 (MroD [4]): 1700 ± 400 nM
H-SDLDIVDLDLAVDEELAALSVGGLGNTEVGASGWLGSGVI-OH [Δ12MroA1-W7G]			dehydration by MroBC (site and extent) (MroB/C): only Ser1 is predominantly dehydrated; IC50 (MroB): 8100 ± 3900 nM; IC50 (MroD [4]): 2400 ± 300 nM
SGIAKEVQSWLI [Number 47]	2	−	
Δ12MroA1-V8G (peptide)			IC50 [2]: 1100 nM; IC50 [3]: 1700 nM
Δ12MroA1-W7G (peptide)			IC50 [2]: 8100 nM; IC50 [3]: 2400 nM
SGHYKPQASWLI [Number 55]	2	−	
SGLQHGKRSWLI [Number 52-Y8R]	2	−	
H-SDLDIVDLDLAVDEELAALSVGGLGNTEVGA-OH [Δ12MroA1 Leader]			IC50 (MroB): 19400 ± 1600 nM; IC50 (MroD [4]): 16000 ± 4400 nM
H-SDLDIVDLDLAVDEELAALSVGGLGNTEVGASGWLGSWVG-OH [Δ12MroA1-I9G]			IC50 (MroB): 2000 ± 600 nM; IC50 (MroD [4]): 910 ± 90 nM
SGVKADSWLI [Number 4]	2	−	
SGIAKEVRSWLI [Number 47-Q8R]	2	−	
